According to patent US20140051679A1, “KINASE INHIBITORS AND METHOD OF TREATING CANCER WITH SAME” (UNIVERISTY HEALTH NETWORKS, priority 2011, published 2014):

Experiments:
[1] = system: MDA-MB-468 breast cancer cells; assay: Cell growth inhibition, Sulforhodamine B assay, MDA-MB-468; assay type: cell-based; conditions: Homo sapiens, 120 h, 5 days culture, SRB assay, read-out: Cell Line GI50 Range MDA-MB-468
[2] = target: T1, human TTK (Homo sapiens, UniProt P33981); assay: TTK inhibition assay (indirect ELISA); assay type: biochemical; conditions: GST-TTK 0.68 nM, 16 μM ATP; read-out: IC50 Ranges TTK
T1 construct: amino terminal GST fusion of full length human TTK; purchased Invitrogen
T1 sequence (P33981 1-857): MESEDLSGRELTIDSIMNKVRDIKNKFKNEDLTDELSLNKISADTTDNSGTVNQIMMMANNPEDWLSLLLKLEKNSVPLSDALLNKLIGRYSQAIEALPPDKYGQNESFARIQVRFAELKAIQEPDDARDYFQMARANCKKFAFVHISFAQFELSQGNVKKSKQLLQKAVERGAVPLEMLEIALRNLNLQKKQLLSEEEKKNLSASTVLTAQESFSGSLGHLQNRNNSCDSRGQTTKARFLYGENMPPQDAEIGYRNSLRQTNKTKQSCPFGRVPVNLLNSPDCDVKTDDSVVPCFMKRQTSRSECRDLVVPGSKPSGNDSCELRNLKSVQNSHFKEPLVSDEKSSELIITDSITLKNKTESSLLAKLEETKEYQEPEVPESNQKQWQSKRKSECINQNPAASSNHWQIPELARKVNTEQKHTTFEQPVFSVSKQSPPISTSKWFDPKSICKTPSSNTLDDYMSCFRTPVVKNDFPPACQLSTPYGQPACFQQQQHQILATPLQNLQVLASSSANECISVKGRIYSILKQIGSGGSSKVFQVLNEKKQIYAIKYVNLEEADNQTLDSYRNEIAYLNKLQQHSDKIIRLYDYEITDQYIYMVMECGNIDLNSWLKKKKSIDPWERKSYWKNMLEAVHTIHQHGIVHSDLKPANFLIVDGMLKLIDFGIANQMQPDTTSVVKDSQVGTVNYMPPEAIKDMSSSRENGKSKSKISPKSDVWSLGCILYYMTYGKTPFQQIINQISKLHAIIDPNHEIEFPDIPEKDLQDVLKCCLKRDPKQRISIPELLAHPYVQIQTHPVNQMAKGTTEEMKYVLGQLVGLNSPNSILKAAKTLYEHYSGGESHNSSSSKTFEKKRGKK

[3] = system: MDA-MB-231 breast cancer cells; assay: Cell growth inhibition, Sulforhodamine B assay, MDA-MB-231; assay type: cell-based; conditions: Homo sapiens, 120 h, 5 days culture, SRB assay, read-out: Cell Line GI50 Range MDA-MB-231
[4] = system: HCT116 colon cancer cells; assay: Cell growth inhibition, Sulforhodamine B assay, HCT116; assay type: cell-based; conditions: Homo sapiens, HCT-116, 120 h, 5 days culture, SRB assay, read-out: Cell Line GI50 Range HCT116
[5] = target: T2, human PLK4 (Homo sapiens, UniProt O00444); assay: PLK4 inhibition assay (indirect ELISA); assay type: biochemical; conditions: GST-PLK4 4 nM, 15 μM ATP; read-out: IC50 Ranges PLK4
T2 construct: amino terminal GST fusion of residues 1-391 of human PLK4; made in house; host or cells: E. coli
T2 sequence (O00444 1-391): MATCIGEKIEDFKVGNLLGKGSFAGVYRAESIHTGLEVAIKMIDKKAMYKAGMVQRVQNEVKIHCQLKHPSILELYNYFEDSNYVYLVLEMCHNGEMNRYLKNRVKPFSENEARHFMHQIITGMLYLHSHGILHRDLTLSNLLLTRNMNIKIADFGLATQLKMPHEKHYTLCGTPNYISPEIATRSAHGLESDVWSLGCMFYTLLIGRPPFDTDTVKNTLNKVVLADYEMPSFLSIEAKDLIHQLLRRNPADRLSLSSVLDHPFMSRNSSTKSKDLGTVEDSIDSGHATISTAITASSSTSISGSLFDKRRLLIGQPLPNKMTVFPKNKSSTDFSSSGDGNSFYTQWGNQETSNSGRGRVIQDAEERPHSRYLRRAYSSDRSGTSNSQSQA
Outline: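 Compounds were tested either at a single 10 μM dose or across 10-point titrations (typically 0.5 to 0.001 μM), preincubated 15 min with 4 nM GST-PLK4 (human 1-391, dephosphorylated) before 15 μM ATP was added. MBP substrate phosphorylation over 30 min, pH 7.5 HEPES/MgCl2 buffer, read by HRP/TMB ELISA (450 nm). % inhibition vs. high-activity control; IC50 by logistic fit.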

[6] = system: Ovarian TICs, 2393A ovarian; assay: Ovarian tumor-initiating cell growth inhibition (Alamar Blue); assay type: cell-based; conditions: 144 h, 6 days, read-out: GI50 range 2393A ovarian
[7] = system: Colon tumor initiating cells (TICs), 12 colon; assay: Colon tumor-initiating cell growth inhibition (Alamar Blue); assay type: cell-based; conditions: 216 h, 9 days, read-out: GI50 range 12 colon
[8] = system: HT29 colon cancer cells; assay: Cell growth inhibition, Sulforhodamine B assay, HT29; assay type: cell-based; conditions: Homo sapiens, HT-29, 120 h, 5 days culture, SRB assay, read-out: Cell Line GI50 Range HT29
[9] = system: PA-1 ovarian cancer cells; assay: Cell growth inhibition, Sulforhodamine B assay, PA-1; assay type: cell-based; conditions: 120 h, 5 days culture, SRB assay, read-out: Cell Line GI50 Range PA-1
[10] = system: OVCAR-3 ovarian cancer cells; assay: Cell growth inhibition, Sulforhodamine B assay, OVCAR-3; assay type: cell-based; conditions: Homo sapiens, 120 h, 5 days culture, SRB assay, read-out: Cell Line GI50 Range OVCAR-3
[11] = target: T3, Aurora B (Homo sapiens, UniProt Q96GD4); assay: Aurora B inhibition assay (Z-Lyte); assay type: biochemical; conditions: 28 nM Aurora B, 128 μM ATP; read-out: IC50 Ranges Aurora B
T3 construct: purchased Invitrogen PV3970
T3 sequence (Q96GD4 whole entry): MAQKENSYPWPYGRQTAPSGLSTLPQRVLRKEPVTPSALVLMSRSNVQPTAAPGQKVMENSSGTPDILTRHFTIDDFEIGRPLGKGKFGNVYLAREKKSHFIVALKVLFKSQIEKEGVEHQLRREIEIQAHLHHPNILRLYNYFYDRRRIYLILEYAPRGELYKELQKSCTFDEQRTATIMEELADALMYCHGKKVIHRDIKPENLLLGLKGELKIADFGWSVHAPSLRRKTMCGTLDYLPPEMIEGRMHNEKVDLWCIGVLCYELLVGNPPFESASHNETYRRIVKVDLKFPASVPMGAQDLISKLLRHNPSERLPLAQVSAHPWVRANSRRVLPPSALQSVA
Experimental: Aurora B inhibition was determined using the Z-Lyte assay kit from Invitrogen. The assay was performed using the recommended manufacturer's instructions with 128 μM ATP and 28 nM Aurora B (Invitrogen cat #PV3970). The % inhibition values were determined according to the manufacturer's directions and IC50 values were obtained using a non-linear 4 point logistic curve fit (XLfit4, IDBS)

GI50 [1] [µM] | IC50 [2] [µM] | GI50 [3] [µM] | GI50 [4] [µM] | IC50 [5] [µM] | GI50 [6] [µM] | GI50 [7] [µM] | GI50 [8] [µM] | GI50 [9] [µM] | GI50 [10] [µM] | IC50 [11] [µM] | SMILES
≤ 5 | ≤ 5 | ≤ 5 | ≤ 5 | ≤ 5 | ≤ 5 | ≤ 5 | ≤ 5 | ≤ 5 | ≤ 5 | ≤ 5 | CC[C@@H](NC(=O)c1ccc2[nH]nc(-c3ccc(OC4CCN(C)CC4)cc3)c2c1)c1cccc(OC)c1 [Example A174, (R)—N-(1-(3-methoxyphenyl)propyl)-3-(4-((1-methylpiperidin-4-yl)oxy)phenyl)-1H-indazole-5-carboxamide]
≤ 5 | ≤ 5 | ≤ 5 | ≤ 5 | ≤ 5 | ≤ 5 | ≤ 5 | ≤ 5 | ≤ 5 | ≤ 5 | ≤ 5 | COCCN1CCC(Oc2ccc(-c3n[nH]c4ccc(NC(=O)C(c5ccsc5)N5CCCC5)cc34)cc2)CC1 (stereo not shown) [Example A175, N-(3-(4-((1-(2-methoxyethyl)piperidin-4-yl)oxy)phenyl)-1H-indazol-5-yl)-2-(pyrrolidin-1-yl)-2-(thiophen-3-yl)acetamide]
≤ 5 | ≤ 5 | ≤ 5 | ≤ 5 | ≤ 5 | ≤ 5 | ≤ 5 | ≤ 5 | ≤ 5 | ≤ 5 | ≤ 5 | O=CN1CCC(Oc2ccc(-c3n[nH]c4ccc(NC(=O)C(c5ccccn5)C5CCCC5)cc34)cc2)CC1 (stereo not shown) [Example A176, 2-cyclopentyl-N-(3-(4-((1-formylpiperidin-4-yl)oxy)phenyl)-1H-indazol-5-yl)-2-(pyridin-2-yl)acetamide]
≤ 5 | ≤ 5 | ≤ 5 | ≤ 5 | ≤ 5 | ≤ 5 | ≤ 5 | ≤ 5 | ≤ 5 | ≤ 5 | ≤ 5 | CN1CCC(Oc2ccc(-c3n[nH]c4ccc(C(=O)NC(c5ccccc5)C5CCOCC5)cc34)cc2)CC1 (stereo not shown) [Example A177, 3-(4-((1-methylpiperidin-4-yl)oxy)phenyl)-N-(phenyl(tetrahydro-2H-pyran-4-yl)methyl)-1H-indazole-5-carboxamide]

SMILES | GI50 [1] [µM] | IC50 [2] [µM] | GI50 [3] [µM] | GI50 [4] [µM] | IC50 [5] [µM] | GI50 [6] [µM] | GI50 [7] [µM] | GI50 [8] [µM] | GI50 [9] [µM] | GI50 [10] [µM] | IC50 [11] [µM]
CN1[C@@H]2CC[C@H]1C[C@@H](Oc1ccc(-c3n[nH]c4ccc(C(=O)NC(c5ccccc5)C5CC5)cc34)cc1)C2 (stereo partly drawn) [Example A178, N-(cyclopropyl(phenyl)methyl)-3-(4-(((1R,3r,5S)-8-methyl-8-azabicyclo[3.2.1]octan-3-yl)oxy)phenyl)-1H-indazole-5-carboxamide] | ≤ 5 | ≤ 5 | ≤ 5 | ≤ 5 | ≤ 5 | ≤ 5 | ≤ 5 | ≤ 5 | ≤ 5 | ≤ 5 | ≤ 5
